Assays:
[1] = target: RAC-alpha serine/threonine-protein kinase (Homo sapiens, UniProt P31749); test: Selectivity interaction (Kinase panel (literature)) EUB0001199aCl AKT1; settings: at 1 µM
[2] = target: Calcium/calmodulin-dependent protein kinase type 1G (Homo sapiens) (UniProt Q96NX5); settings: at 10 µM
[3] = target: RAC-gamma serine/threonine-protein kinase (Homo sapiens, UniProt Q9Y243); settings: at 10 µM
[4] = target: Serine/threonine-protein kinase pim-3 (Homo sapiens) (UniProt Q86V86); test: Selectivity interaction (KinomeScan (DiscoverX)) EUB0000595a PIM3; settings: at 10 µM
[5] = target: T1, Phosphorylase b kinase gamma catalytic chain, liver/testis isoform (Homo sapiens) (UniProt P15735); test: Selectivity interaction (KinomeScan (DiscoverX)) EUB0001079a PHKG2; settings: at 1 µM
T1 sequence (whole entry): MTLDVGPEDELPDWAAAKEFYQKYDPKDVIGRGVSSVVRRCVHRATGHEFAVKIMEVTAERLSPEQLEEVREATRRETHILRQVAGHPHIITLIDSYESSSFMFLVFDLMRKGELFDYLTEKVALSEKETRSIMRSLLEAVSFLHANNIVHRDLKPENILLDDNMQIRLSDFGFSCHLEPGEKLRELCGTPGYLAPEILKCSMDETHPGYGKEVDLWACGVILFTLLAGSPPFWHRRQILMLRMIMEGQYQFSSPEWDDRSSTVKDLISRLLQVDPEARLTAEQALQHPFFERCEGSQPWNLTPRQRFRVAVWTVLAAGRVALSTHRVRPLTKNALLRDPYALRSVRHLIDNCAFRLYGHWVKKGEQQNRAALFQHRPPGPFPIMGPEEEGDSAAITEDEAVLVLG

[6] = target: T2, Tyrosine-protein kinase ZAP-70 (Homo sapiens) (UniProt P43403); test: Selectivity interaction (Upstate Kinase Profiler service (Millipore)) EUB0000056c ZAP70; settings: at 1 µM
T2 sequence (whole entry): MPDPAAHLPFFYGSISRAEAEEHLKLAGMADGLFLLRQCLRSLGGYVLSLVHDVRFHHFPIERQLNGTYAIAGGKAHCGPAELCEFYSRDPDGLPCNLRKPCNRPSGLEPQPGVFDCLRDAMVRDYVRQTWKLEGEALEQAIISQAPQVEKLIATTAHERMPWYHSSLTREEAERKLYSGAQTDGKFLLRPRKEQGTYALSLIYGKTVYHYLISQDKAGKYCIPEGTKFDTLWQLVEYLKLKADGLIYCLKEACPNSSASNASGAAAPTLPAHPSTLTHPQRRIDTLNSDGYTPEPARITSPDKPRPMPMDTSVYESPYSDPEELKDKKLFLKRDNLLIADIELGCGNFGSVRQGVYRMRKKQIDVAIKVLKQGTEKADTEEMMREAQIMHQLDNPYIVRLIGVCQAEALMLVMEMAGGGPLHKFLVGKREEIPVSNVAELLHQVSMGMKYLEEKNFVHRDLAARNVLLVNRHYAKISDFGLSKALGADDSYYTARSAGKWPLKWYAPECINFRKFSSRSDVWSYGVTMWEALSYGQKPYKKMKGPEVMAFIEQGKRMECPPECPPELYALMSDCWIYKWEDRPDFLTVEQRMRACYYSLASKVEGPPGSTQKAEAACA

[7] = tested on: Epidermal growth factor receptor (Homo sapiens), P00533 [G719C]; test: (§1) Selectivity interaction (KinomeScan (DiscoverX)) EUB0000045b EGFR
[8] = tested on: Epidermal growth factor receptor (Homo sapiens), P00533 [L858R,T790M]; test: as §1
[9] = tested on: Epidermal growth factor receptor (Homo sapiens), P00533 [T790M]; test: as §1
[10] = tested on: Epidermal growth factor receptor (Homo sapiens), P00533 [G719S]; test: as §1
[11] = tested on: Epidermal growth factor receptor (Homo sapiens), P00533 [L858R]; test: as §1
[12] = target: Epidermal growth factor receptor (Homo sapiens, UniProt P00533); test: as §1
[13] = tested on: Epidermal growth factor receptor (Homo sapiens), P00533 [L861Q]; test: as §1
[14] = tested on: Epidermal growth factor receptor (Homo sapiens), P00533 [UNDEFINED MUTATION]; test: as §1
[15] = target: Cyclin-dependent kinase 15 (Homo sapiens) (UniProt Q96Q40); test: Selectivity interaction (KinomeScan (DiscoverX)) EUB0001619a CDK15; settings: at 1 µM
[16] = target: T3, Inhibitor of nuclear factor kappa-B kinase subunit alpha (Homo sapiens) (UniProt O15111); test: Selectivity interaction (ActivX KiNativ screen (ex vivo kinase selectivity in human PBMCs)) EUB0001619a CHUK; format: cell-based; settings: PBMC, at 1 µM
T3 sequence (whole entry): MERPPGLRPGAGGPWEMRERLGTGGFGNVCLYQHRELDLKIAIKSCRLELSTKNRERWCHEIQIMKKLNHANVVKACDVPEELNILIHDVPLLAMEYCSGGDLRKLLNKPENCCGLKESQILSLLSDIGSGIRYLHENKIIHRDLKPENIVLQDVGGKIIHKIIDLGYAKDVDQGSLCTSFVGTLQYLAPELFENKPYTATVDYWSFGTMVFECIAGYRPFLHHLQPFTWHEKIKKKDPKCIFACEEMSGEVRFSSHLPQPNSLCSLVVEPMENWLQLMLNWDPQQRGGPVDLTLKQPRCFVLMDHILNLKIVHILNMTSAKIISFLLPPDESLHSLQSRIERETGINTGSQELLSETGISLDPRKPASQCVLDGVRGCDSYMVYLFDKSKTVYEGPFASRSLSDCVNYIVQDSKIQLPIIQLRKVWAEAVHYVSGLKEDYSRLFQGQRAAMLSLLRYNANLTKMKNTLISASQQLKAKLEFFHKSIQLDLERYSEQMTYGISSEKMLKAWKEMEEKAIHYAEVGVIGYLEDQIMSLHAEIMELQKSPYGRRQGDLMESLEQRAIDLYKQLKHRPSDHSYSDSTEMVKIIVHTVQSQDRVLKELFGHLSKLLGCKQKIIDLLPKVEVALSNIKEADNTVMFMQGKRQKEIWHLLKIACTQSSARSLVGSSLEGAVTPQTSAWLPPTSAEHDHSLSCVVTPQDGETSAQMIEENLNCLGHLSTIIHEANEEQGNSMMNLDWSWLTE

[17] = target: T2, Tyrosine-protein kinase ZAP-70 (Homo sapiens); test: Selectivity interaction (KinomeScan (DiscoverX)) EUB0000618a ZAP70; settings: at 10 µM
[18] = target: Mitogen-activated protein kinase kinase kinase 11 (Homo sapiens) (UniProt Q16584); test: Selectivity interaction (KinomeScan (DiscoverX)) EUB0000666a MAP3K11; settings: at 10 µM
[19] = target: aryl hydrocarbon receptor (AHR) (Homo sapiens, UniProt P35869); test: Selectivity interaction (Panel of kinases, GPCRs, ion channels and transporters (enzymatic assay)) EUB0000223bCl AHR

Chain of Epidermal growth factor receptor (Homo sapiens), P00533 [G719C] (P00533 whole entry G719C): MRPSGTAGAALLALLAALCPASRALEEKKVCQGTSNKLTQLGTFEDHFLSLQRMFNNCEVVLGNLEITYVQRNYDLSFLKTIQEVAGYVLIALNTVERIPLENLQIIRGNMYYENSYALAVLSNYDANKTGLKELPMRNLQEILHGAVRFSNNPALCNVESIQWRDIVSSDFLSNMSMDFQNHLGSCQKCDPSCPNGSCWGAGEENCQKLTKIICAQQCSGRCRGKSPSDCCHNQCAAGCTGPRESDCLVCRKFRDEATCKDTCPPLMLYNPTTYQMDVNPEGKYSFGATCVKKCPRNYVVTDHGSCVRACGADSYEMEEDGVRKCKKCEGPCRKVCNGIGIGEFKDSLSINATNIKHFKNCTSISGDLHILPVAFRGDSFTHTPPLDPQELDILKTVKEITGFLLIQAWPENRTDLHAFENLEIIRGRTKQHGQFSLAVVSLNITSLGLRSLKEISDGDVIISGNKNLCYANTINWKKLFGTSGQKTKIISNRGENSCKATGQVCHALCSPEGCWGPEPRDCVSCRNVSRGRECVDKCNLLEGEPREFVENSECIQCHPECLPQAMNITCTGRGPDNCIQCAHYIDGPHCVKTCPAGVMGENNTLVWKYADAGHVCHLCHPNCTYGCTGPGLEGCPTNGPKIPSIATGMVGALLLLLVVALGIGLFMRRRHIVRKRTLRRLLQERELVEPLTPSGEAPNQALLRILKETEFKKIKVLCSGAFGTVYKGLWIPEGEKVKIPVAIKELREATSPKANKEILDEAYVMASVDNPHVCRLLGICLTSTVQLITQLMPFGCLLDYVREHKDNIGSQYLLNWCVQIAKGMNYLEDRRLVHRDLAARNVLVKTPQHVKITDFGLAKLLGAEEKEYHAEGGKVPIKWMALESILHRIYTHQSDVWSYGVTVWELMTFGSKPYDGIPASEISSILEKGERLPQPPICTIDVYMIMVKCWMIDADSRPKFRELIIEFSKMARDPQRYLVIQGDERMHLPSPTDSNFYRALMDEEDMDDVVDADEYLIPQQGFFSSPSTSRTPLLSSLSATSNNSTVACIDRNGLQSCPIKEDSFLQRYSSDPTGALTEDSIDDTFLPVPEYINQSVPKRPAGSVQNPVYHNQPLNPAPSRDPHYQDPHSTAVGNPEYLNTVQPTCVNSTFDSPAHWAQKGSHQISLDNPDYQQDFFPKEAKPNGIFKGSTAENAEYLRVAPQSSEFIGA
Chain of Epidermal growth factor receptor (Homo sapiens), P00533 [G719S] (P00533 whole entry G719S): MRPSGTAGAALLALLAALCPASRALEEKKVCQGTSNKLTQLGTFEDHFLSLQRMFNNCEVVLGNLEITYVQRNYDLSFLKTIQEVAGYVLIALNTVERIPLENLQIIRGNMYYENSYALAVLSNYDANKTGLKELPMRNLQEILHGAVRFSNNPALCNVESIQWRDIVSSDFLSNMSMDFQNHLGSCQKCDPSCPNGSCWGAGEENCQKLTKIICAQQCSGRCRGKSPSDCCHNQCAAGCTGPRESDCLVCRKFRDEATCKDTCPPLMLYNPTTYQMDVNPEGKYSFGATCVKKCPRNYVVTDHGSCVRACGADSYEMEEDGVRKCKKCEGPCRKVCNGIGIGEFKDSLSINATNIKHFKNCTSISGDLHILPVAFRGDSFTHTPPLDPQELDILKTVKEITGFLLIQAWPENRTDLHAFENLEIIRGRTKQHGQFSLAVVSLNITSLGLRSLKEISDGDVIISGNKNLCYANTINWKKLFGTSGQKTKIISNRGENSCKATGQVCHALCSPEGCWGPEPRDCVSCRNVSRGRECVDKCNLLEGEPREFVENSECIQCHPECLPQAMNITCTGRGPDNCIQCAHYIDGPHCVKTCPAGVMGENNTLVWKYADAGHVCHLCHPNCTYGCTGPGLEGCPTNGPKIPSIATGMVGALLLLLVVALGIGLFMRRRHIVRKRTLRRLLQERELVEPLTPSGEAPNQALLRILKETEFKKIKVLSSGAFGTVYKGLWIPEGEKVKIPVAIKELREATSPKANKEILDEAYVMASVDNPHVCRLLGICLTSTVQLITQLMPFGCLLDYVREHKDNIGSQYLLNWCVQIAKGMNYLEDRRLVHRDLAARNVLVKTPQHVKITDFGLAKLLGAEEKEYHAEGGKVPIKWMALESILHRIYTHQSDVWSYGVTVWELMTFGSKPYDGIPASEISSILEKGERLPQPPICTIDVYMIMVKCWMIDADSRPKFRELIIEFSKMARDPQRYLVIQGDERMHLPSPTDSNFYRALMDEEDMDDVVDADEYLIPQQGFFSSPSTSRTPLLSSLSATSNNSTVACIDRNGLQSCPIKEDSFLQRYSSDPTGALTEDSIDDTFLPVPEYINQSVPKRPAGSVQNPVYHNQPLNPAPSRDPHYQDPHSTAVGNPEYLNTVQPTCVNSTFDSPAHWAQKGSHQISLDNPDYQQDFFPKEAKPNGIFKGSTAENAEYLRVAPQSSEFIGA
Chain of Epidermal growth factor receptor (Homo sapiens), P00533 [UNDEFINED MUTATION] (P00533 whole entry, looked up, change not shown): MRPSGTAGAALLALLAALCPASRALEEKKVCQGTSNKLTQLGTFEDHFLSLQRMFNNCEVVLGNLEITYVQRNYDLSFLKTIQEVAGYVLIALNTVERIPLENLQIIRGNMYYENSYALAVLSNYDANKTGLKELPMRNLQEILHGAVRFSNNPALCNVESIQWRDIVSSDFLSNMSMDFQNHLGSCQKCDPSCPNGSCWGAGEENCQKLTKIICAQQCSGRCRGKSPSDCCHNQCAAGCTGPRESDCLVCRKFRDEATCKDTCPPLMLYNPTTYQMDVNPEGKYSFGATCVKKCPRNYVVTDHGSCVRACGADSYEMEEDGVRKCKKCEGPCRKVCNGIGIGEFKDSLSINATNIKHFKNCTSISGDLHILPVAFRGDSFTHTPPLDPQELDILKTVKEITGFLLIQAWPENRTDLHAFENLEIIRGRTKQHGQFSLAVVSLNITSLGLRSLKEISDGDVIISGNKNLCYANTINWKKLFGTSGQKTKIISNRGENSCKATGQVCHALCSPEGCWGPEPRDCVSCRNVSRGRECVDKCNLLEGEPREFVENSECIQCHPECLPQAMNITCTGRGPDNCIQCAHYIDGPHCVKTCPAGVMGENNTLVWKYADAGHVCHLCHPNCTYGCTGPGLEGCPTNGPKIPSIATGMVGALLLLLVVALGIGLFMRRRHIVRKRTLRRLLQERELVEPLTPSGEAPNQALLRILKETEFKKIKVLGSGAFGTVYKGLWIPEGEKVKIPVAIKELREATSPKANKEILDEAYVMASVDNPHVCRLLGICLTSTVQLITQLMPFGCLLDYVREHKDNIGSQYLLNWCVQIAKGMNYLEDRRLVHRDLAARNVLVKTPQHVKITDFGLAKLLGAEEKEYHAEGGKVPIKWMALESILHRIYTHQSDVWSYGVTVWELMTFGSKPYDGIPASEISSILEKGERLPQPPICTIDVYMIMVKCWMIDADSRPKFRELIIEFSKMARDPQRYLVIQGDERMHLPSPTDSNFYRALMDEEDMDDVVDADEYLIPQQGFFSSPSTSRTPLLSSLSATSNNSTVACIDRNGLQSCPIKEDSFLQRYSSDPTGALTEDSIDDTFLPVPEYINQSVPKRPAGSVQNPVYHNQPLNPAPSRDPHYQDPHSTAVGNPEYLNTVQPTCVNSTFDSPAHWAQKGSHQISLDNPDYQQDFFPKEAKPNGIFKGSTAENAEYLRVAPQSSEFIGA
Chain of Epidermal growth factor receptor (P00533 whole entry): as the sequence (P00533 whole entry, looked up, change not shown) above

CN1Cc2nccc(-c3cn(C)nc3-c3ccc(F)cc3)c2C1=O
% of inhibition [1]: 1%

CCN(CC)CCCCNc1ncc2cc(-c3cc(OC)cc(OC)c3)c(NC(=O)NC(C)(C)C)nc2n1
% of control [2]: 100%
% of control [3]: 100%

COCC(=O)NC/C=C/c1ccc2ncnc(Nc3ccc(Oc4ccc(C)nc4)c(C)c3)c2c1 [CP-724714]
% of control [4]: 100%

Nc1cnc(N2CCc3cc(S(=O)(=O)Nc4c(F)cc(Cl)cc4F)cc(N4CCCC4=O)c32)nc1 [TP-020n]
% of control [5]: 100%

Cc1ccc(-c2ccc3c(ccc4sc5c(c43)NC[C@@H](C)NC5=O)n2)cn1
% of inhibition [6]: -8%

C=CC(=O)Nc1cc(-n2c(=O)ccc3cnc4ccc(-c5ccc(NS(C)(=O)=O)cc5)cc4c32)ccc1C
% of control ([7]; at 1 µM): 73%
% of control ([7]; at 10 µM): 90%
% of control ([8]; at 1 µM): 100%
% of control ([8]; at 10 µM): 44%
% of control ([9]; at 1 µM): 11%
% of control ([9]; at 10 µM): 2.1%
% of control ([10]; at 1 µM): 90%
% of control ([10]; at 10 µM): 85%
% of control ([11]; at 1 µM): 95%
% of control ([11]; at 10 µM): 50%
% of control ([12]; at 1 µM): 82%
% of control ([12]; at 10 µM): 25%
% of control ([13]; at 1 µM): 40%
% of control ([13]; at 10 µM): 45%
% of control ([14]; at 1 µM): 100%
% of control ([14]; at 10 µM): 32%

N#Cc1cccc(-c2c[nH]c3ncnc(N4CCOCC4)c23)c1
% of control [15]: 100%
% of inhibition [16]: -7%

O[C@H]1CC[C@H](Nc2ncc3nc(Nc4c(F)cc(F)cc4F)n([C@H]4CCOC4)c3n2)CC1
% of control [17]: 100%

O=C(NOC[C@H](O)CO)c1ccc(F)c(F)c1Nc1ccc(I)cc1F
% of control [18]: 100%

COc1cc(C(=O)N2CC[C@@H](O)[C@@H](N)C2)cc2nc(-c3cc4ccccc4n3CC3CC3)n(C)c12
XC50 [19]: 79.4 µM

Reference: ChEMBL document CHEMBL5465560, “Selectivity Literature for EUbOPEN Chemogenomic Library” (2024)
